In patent US11912717B2 (Shenzhen Tenver Biopharm Co., Ltd., priority 2018, dated 2024):

Test: Stability test (accelerated experiment, sealed PE/aluminum foil bags, 40±2° C., humidity 75±5%)
Conditions: for Purity by HPLC / Appearance / XRPD: 40±2° C., humidity 75±5%
Experimental: X-ray powder diffractometer model: Rigaku D/max-2200 Cu target; operation condition: scanning speed, 4°/min, scanning step width, 0.01°.
High performance liquid chromatograph, Agilent1100; Chromatographic column: C18, 4.6 mm×250 mm; mobile phase, acetonitrile:0.1% phosphoric acid aqueous solution=65:35 (v:v); Detection wavelength: 240 nm; flow rate, 1.0 ml/min; Column temperature: 25° C.
The bags were electrothermally sealed, and then placed into aluminum foil bags which were also electrothermally sealed.

With “tenvermectin B [crystal form I of tenvermectin B]” the “Purity by HPLC” value (first month) was 99.0, the Appearance (first month, cell wraps: White / crystalline / powder) was “White” and the XRPD (first month, cell wraps: crystal / form I) was “crystal”. The “Purity by HPLC” value (initial data) was 99.1, the XRPD (initial data, cell wraps over 2 lines: crystal / form I) was “crystal” and the Appearance (initial data, cell wraps over 3 lines: White / crystalline / powder) was “White”. For the same substance, the “Purity by HPLC” value (second month) was 99.1, the Appearance (second month, cell wraps: White / crystalline / powder) was “White” and the XRPD (second month, cell wraps: crystal / form I) was “crystal”. For the same substance, the “Purity by HPLC” value (sixth month) was 98.9, the Appearance (sixth month, cell wraps: White / crystalline / powder) was “White” and the XRPD (sixth month, cell wraps: crystal / form I) was “crystal”. For the same substance, the “crystal transformation phenomenon in the stability experiment” value (stability experiment) was “does not occur”, the “Purity by HPLC” value (third month) was 98.9 and the Appearance (third month, cell wraps: White / crystalline / powder) was “White”. For the same substance, the XRPD (third month, cell wraps: crystal / form I) was “crystal”.
